Entries after “also recorded” stand apart in the source; their conditions may differ. Residues, ends and D or L forms follow the SMILES beside them. No end group written: not given here. *: point of attachment. FITC = O=C1OC2(c3ccc(O)cc3Oc3cc(O)ccc32)c2ccc(NC(=S)*)cc21
Assays:
Type in all cases: cell-based
[1] = test system: Beas-2B cells; assay: Confocal microscopy of cellular uptake and intracellular distribution; conditions: for entry into Beas-2B cells (minimal length requirement): 5 μM FITC-labeled peptide, 30 min
Procedure: FIG. 3 illustrates intracellular distribution of cell-penetrating ECP(32-41). Beas-2B cells were incubated with 5 μM FITC-ECP(32-41) at 37° C. for 5 or 60 min. After wash with 1 ml PBS buffer twice, the cellular uptake was analyzed by confocal laser scanning microscopy. Magnification ford: 63×. Scale bar: 50
FIG. 4 illustrates minimal length requirement of cell penetration peptide. Beas-2B cells were incubated with 5 μM FITC-ECP(32-41), FITC-ECP(32-41)D1, and FITC-ECP(32-41)D2 separately at 37° C. for 30 min. After wash with 1 ml PBS buffer twice, the cellular uptake was analyzed by confocal laser scanning microscopy. Magnification fold: 40×. Scale bar: 50
Cells (1.0×10^4 cells/well) were plated on 18-mm glass-bottomed dishes (Marienfeld, Germany) and cultured in medium containing 10% heat-inactivated fetal bovine serum for 24 h. After complete adhesion, the cell culture medium was removed, and then incubated at 37° C. in fresh medium containing the fluorescence-labeled peptides. The cells were washed with PBS, then fixed by 2% (w/v) paraformaldehyde (PFA) in PBS for 15 min, and 50 mM ammonium chloride in PBS was added to quench with fluoresce from PFA. Distribution of the fluorescence-labeled peptides in the cells was analyzed using a confocal scanning laser microscope (Zeiss).

[2] = test system: Beas-2B cells; assay: Flow cytometry of cellular uptake of fluorescence-labeled peptides/proteins; conditions: 37° C., 30 min; for cellular uptake of peptide cargo: 5 μM
Procedure: FIG. 2 illustrates cellular uptake of ECP(32-41). Beas-2B cells were incubated with 20 μM FITC (control) or FITC-ECP(32-41) at 37° C. for 30 min. After treatment, the cells were washed with 500 μl phosphate buffered saline (PBS) and treated with trypsin at 37° C. for 10 min to remove adherent extracellular peptides. The cells were resuspended in 500 μl PBS and analyzed by flow cytometry. The cellular uptake activity was expressed as mean fluorescence intensity (MFI) using FACScalibur (BD Biosciences, Franklin Lakes, N.J.) flow cytometer (FACS). The data represented the means of triplicate incubations.
FIG. 5 illustrates in vitro delivery of peptide. Beas-2B cells were incubated with 5 μM FITC (control), FITC-Dp2 or FITC-Dp2-ECP(32-41) at 37° C. for 1 h. After treatment, cells were washed with 500 μl PBS and treated with trypsin at 37° C. for 10 min to remove adherent extracellular peptides. The cells were resuspended in 500 μl PBS and analyzed by flow cytometry. The cellular uptake activity was expressed as mean fluorescence intensity (MFI) using FACScalibur (BD Biosciences, Franklin Lakes, N.J.) flow cytometer (FACS). The data represented the means of triplicate incubations.
FIG. 6 illustrates in vitro delivery of protein. […] The cells were resuspended in 500 μl PBS and analyzed by flow cytometry. The cellular uptake activity was expressed as mean fluorescence intensity (MFI) using FACScalibur (BD Biosciences, Franklin Lakes, N.J.) flow cytometer (FACS). […]
Cells (2.0×10^5 cells/well) were plated into a 6-well microplate and cultured for 24 h in RPMI 1640 medium containing 10% heat-inactivated bovine serum (Beas-2B). After complete adhesion, the cells were incubated at 37° C. with fluorescence-labeled peptides dissolved in fresh serum-containing medium prior to washing with PBS. […] The washing cycle was repeated again and the cells were suspended in PBS and subjected to fluorescence analysis on a FACScalibur (BD Biosciences, Franklin Lakes, N.J.) flow cytometer (FACS) using 488-nm laser excitation and a 515-545-nm emission filter. […]

[3] = test system: Beas-2B cells; assay: MTT cell viability assay; conditions: for cytotoxicity / cell death: Beas-2B cells, 24 h, MTT
Procedure: (§1) FIG. 7 illustrates in vitro delivery of peptidomimetic drug. (A). Cell viability assay. Beas-2B cells were incubated with 50 μM (KLAKLAK)2-ECP(32-41), ECP(32-41), or (KLAKLAK)2, at 37° C. for 24 h. Effects of (KLAKLAK)2-ECP(32-41) on the cell viability of Beas-2B, A549 and CHO-K1 cells (B), as well as Caco-2 and AGS cells (C). Cell viability in each group was determined by MTT assay and each experiment was performed in triplicate.
(§2) The cytotoxic effect of peptides on the cell growth were determined by a colorimetric assay using 3-(4,5-dimethylthiazol-2-yl)-2,5-diphenyltetrazolium bromide (MTT) (US Biological, Marblehead, Mass.). Cells were plated in a 96-well plate (1.0×10^4 cells/well) and incubated at 37° C. overnight. Each sample was incubated with the indicated concentration (1-100 μM) of peptide. Twenty-four hours after treatment with the indicated peptide, MTT was added, and cell growth was monitored at A570 to measure the mitochondrial-dependent formation of a colored product.

[4] = test system: CHO-K1; assay: MTT cell viability assay; conditions: CHO-K1, 24 h
Procedure: as §1, §2

[5] = test system: AGS; assay: MTT cell viability assay; conditions: 24 h
Procedure: as §1, §2

[6] = test system: Caco-2; assay: MTT cell viability assay; conditions: Caco-2, 24 h
Procedure: as §1, §2

[7] = test system: A549; assay: MTT cell viability assay; conditions: A549, 24 h
Procedure: as §1, §2

ECP(32-41)D2: C-terminally truncated ECP(32-41) peptide, SEQ ID NO: 3 (NYRWRCKN; ECP(32-41)D2)
entry into Beas-2B cells (minimal length requirement) ([1]; 37° C.): could not

FITC-Dp2: Dp2 peptide (SEQ ID NO: 4), the group 2 allergen of Dermatophagoides pteronyssinus, FITC-labeled (IIHRGKPFQLEAV; not fully specified (N-terminus); also: FITC label) [reference compound]
cellular uptake of peptide cargo [2]: only Dp2-ECP(32-41) was able to enter the cells

FITC-ECP(32-41): fluorochrome-tagged peptide, FITC-labeled ECP(32-41) (SEQ ID NO: 1) ({FITC}-NYRWRCKNQN)
cellular uptake (fluorescent signal shift) ([2]; 20 μM, trypsinized): significant uptake | fluorescence signal inside the cells ([1]; 5 μM, 5 min): a clear fluorescence signal inside the cells | fluorescence signal inside the cells ([1]; 5 μM, up to 60 min): Stronger signal

Dp2-ECP(32-41): recombinant Dp2 peptide fused with ECP(32-41), SEQ ID NO: 5 (IIHRGKPFQLEAVNYRWRCKNQN; Dp2-ECP(32-41))
cellular uptake of peptide cargo [2]: able to enter the cells

ECP(32-41): 10 amino acid cell penetrating peptide from eosinophil cationic protein residues 32-41, SEQ ID NO: 1 (NYRWRCKNQN; ECP(32-41))
cytotoxicity / cell death [3]: lacking | entry into Beas-2B cells (minimal length requirement) ([1]; 37° C.): entered Beas-2B cells | intracellular localization ([1]; 5 μM, 37° C.): both cytoplasm and nucleus

CC(C)C[C@H](NC(=O)[C@H](CCCCN)NC(=O)[C@H](C)NC(=O)[C@H](CC(C)C)NC(=O)[C@H](CCCCN)NC(=S)Nc1ccc2c(c1)C(=O)OC21c2ccc(O)cc2Oc2cc(O)ccc21)C(=O)N[C@@H](C)C(=O)N[C@@H](CCCCN)C(=O)N[C@@H](CCCCN)C(=O)N[C@@H](CC(C)C)C(=O)N[C@@H](C)C(=O)N[C@@H](CCCCN)C(=O)N[C@@H](CC(C)C)C(=O)N[C@@H](C)C(=O)N[C@@H](CCCCN)C(=O)N[C@@H](CC(N)=O)C(=O)N[C@@H](Cc1ccc(O)cc1)C(=O)N[C@@H](CCCNC(=N)N)C(=O)N[C@@H](Cc1c[nH]c2ccccc12)C(=O)N[C@@H](CCCNC(=N)N)C(=O)N[C@@H](CS)C(=O)N[C@@H](CCCCN)C(=O)N[C@@H](CC(N)=O)C(=O)N[C@@H](CCC(N)=O)C(=O)N[C@@H](CC(N)=O)C(=O)O [(KLAKLAK)2-ECP(32-41)] ({FITC}-KLAKLAKKLAKLAKNYRWRCKNQN-OH; N-terminus and C-terminus assumed)
cytotoxicity (cell viability) [4]: strong cytotoxicity | cytotoxicity (cell viability) [5]: strong cytotoxicity | cytotoxicity (cell viability) [6]: strong cytotoxicity | cytotoxicity / cell death ([3]; listed as FITC-(KLAKLAK)2-ECP(32-41)): induce markedly cell death; also recorded: strong cytotoxicity | cytotoxicity (cell viability) [7]: strong cytotoxicity

(KLAKLAK)2: previously reported proapoptotic domain, peptidomimetic, SEQ ID NO: 6 (KLAKLAKKLAKLAK; (KLAKLAK)2) [reference compound]
cell-penetrating activity ([3]; stated with the Beas-2B viability results (FIG. 7A)): lacking

ECP(32-41) D1: C-terminally truncated ECP(32-41) peptide, SEQ ID NO: 2 (NYRWRCKNQ; ECP(32-41)D1)
entry into Beas-2B cells (minimal length requirement) ([1]; 37° C.): entered Beas-2B cells
